According to PubChem BioAssay (NCI):
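Step 1: Grow cells in 96-well plates. Step 2: Expose to compound for 48 hours at 5 concentrations. Step 3: Interpolate endpoints linearly; if unreached, use highest concentration. TGI: total growth inhibition.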

What was measured:
Assay in all cases: NCI-60 cell line screen, 48 h
A549 NSCLC = test system: A549 NSCLC
MOLT-4 leukemia = test system: MOLT-4 leukemia
SK-MEL-28 melanoma = test system: SK-MEL-28 melanoma
SW-620 colon = test system: SW-620 colon
786-0 renal = test system: 786-0 renal
NCI-H23 lung = test system: NCI-H23 lung
NCI-H460 lung = test system: NCI-H460 lung
DU-145 prostate = test system: DU-145 prostate
SNB-75 CNS = test system: SNB-75 CNS
MDA-MB-231 breast = test system: MDA-MB-231 breast
HOP-92 NSCLC = test system: HOP-92 NSCLC

For `O=C(N/N=C(/COc1ccccc1)N=Cc1cccnc1)c1ccncc1`, the TGI (A549 NSCLC) was greater than 100 µM, the TGI (MOLT-4 leukemia) was greater than 100 µM and the TGI (SK-MEL-28 melanoma) was greater than 100 µM. For the same molecule, the TGI (SW-620 colon) was greater than 100 µM, the TGI (786-0 renal) was greater than 100 µM and the TGI (NCI-H23 lung) was greater than 100 µM. It also gave a TGI (NCI-H460 lung) greater than 100 µM, a TGI (DU-145 prostate) greater than 100 µM and a TGI (SNB-75 CNS) greater than 100 µM. It also gave a TGI (MDA-MB-231 breast) greater than 100 µM.
Work on `O=C(Nc1ccc(Cl)cc1)c1cc(S(=O)(=O)Nc2nnc3c(Cl)cc(C(F)(F)F)cn23)c(S)cc1Cl` yielded a TGI (A549 NSCLC) greater than 100 µM, a TGI (MOLT-4 leukemia) greater than 100 µM and a TGI (SK-MEL-28 melanoma) greater than 100 µM. It also gave a TGI (786-0 renal) greater than 100 µM, a TGI (NCI-H23 lung) greater than 100 µM and a TGI (NCI-H460 lung) greater than 100 µM. It also gave a TGI (DU-145 prostate) greater than 100 µM, a TGI (MDA-MB-231 breast) greater than 100 µM and a TGI (HOP-92 NSCLC) greater than 100 µM.
`CC(=O)OC(Cc1c(O)c2c(C)cccc2oc1=O)C(C)(C)O` (stereo unspecified) showed a TGI (A549 NSCLC) greater than 100 µM, a TGI (MOLT-4 leukemia) greater than 100 µM and a TGI (SK-MEL-28 melanoma) greater than 100 µM. It also gave a TGI (SW-620 colon) greater than 100 µM, a TGI (786-0 renal) greater than 100 µM and a TGI (NCI-H23 lung) greater than 100 µM. For the same molecule, the TGI (NCI-H460 lung) was greater than 100 µM, the TGI (DU-145 prostate) was greater than 100 µM and the TGI (SNB-75 CNS) was greater than 100 µM. For the same molecule, the TGI (MDA-MB-231 breast) was greater than 100 µM.
With `CNc1nc(C(N)=O)c(N)s1` the TGI (A549 NSCLC) was greater than 100 µM, the TGI (MOLT-4 leukemia) was greater than 100 µM and the TGI (SK-MEL-28 melanoma) was greater than 100 µM. For the same molecule, the TGI (SW-620 colon) was greater than 100 µM, the TGI (786-0 renal) was greater than 100 µM and the TGI (NCI-H23 lung) was greater than 100 µM. It also gave a TGI (NCI-H460 lung) greater than 100 µM, a TGI (DU-145 prostate) greater than 100 µM and a TGI (MDA-MB-231 breast) greater than 100 µM. It also gave a TGI (HOP-92 NSCLC) greater than 100 µM.
With `CC1C(C#N)(C#N)C(C#N)=C(N)C1(Cl)[N+](=O)[O-]` (stereo unspecified) the TGI (A549 NSCLC) was 54.6 µM, the TGI (MOLT-4 leukemia) was 11.6 µM and the TGI (SW-620 colon) was 4.46 µM. It also gave a TGI (786-0 renal) of 18.1 µM, a TGI (NCI-H23 lung) of 35.3 µM and a TGI (DU-145 prostate) of 30.6 µM. It also gave a TGI (SNB-75 CNS) of 24.7 µM, a TGI (MDA-MB-231 breast) of 26.9 µM and a TGI (HOP-92 NSCLC) of 5.91 µM.
`O=CN1CCN(C(=O)c2ccc(Cl)c(Cl)c2)C1=S` showed a TGI (A549 NSCLC) of 35 µM, a TGI (MOLT-4 leukemia) of 53.8 µM and a TGI (SK-MEL-28 melanoma) of 38.3 µM. The TGI (SW-620 colon) was 42.1 µM, the TGI (786-0 renal) was 17.6 µM and the TGI (NCI-H23 lung) was 41 µM. It also gave a TGI (NCI-H460 lung) of 36.2 µM, a TGI (DU-145 prostate) of 30.9 µM and a TGI (SNB-75 CNS) of 32.3 µM. It also gave a TGI (MDA-MB-231 breast) of 30.8 µM.
For `COc1ccc(-c2oc3c(OC)c(OC)cc(O)c3c(=O)c2OC)cc1`, the TGI (A549 NSCLC) was greater than 100 µM, the TGI (MOLT-4 leukemia) was greater than 100 µM and the TGI (SK-MEL-28 melanoma) was greater than 100 µM. It also gave a TGI (SW-620 colon) greater than 100 µM, a TGI (786-0 renal) greater than 100 µM and a TGI (NCI-H23 lung) greater than 100 µM. For the same molecule, the TGI (NCI-H460 lung) was greater than 100 µM, the TGI (DU-145 prostate) was greater than 100 µM and the TGI (MDA-MB-231 breast) was greater than 100 µM. It also gave a TGI (HOP-92 NSCLC) greater than 100 µM.
In the case of `CCOC(=O)C(Cl)(NC(=O)OCc1ccccc1)C(F)(F)F` (stereo unspecified), the TGI (A549 NSCLC) is reported as greater than 100 µM, the TGI (MOLT-4 leukemia) is reported as greater than 100 µM and the TGI (SK-MEL-28 melanoma) is reported as greater than 100 µM. For the same molecule, the TGI (SW-620 colon) was greater than 100 µM, the TGI (786-0 renal) was greater than 100 µM and the TGI (NCI-H23 lung) was greater than 100 µM. The TGI (DU-145 prostate) was greater than 100 µM, the TGI (SNB-75 CNS) was greater than 100 µM and the TGI (MDA-MB-231 breast) was greater than 100 µM. The TGI (HOP-92 NSCLC) was greater than 100 µM.
Molecule `CCOC(=O)NN(C(=O)OCC)c1c(C)cc(C)cc1C` has a TGI (A549 NSCLC) greater than 100 µM, a TGI (MOLT-4 leukemia) greater than 100 µM and a TGI (SK-MEL-28 melanoma) greater than 100 µM. For the same molecule, the TGI (SW-620 colon) was greater than 100 µM, the TGI (786-0 renal) was greater than 100 µM and the TGI (NCI-H23 lung) was greater than 100 µM. The TGI (NCI-H460 lung) was greater than 100 µM, the TGI (DU-145 prostate) was greater than 100 µM and the TGI (SNB-75 CNS) was greater than 100 µM. It also gave a TGI (MDA-MB-231 breast) greater than 100 µM.
In the case of `O=C(c1ccc(Cl)cc1)N(C(=S)OCCOc1ccccc1)c1ccccc1`, the TGI (A549 NSCLC) is reported as 39.3 µM, the TGI (MOLT-4 leukemia) is reported as 59.8 µM and the TGI (SK-MEL-28 melanoma) is reported as 34.9 µM. The TGI (SW-620 colon) was 41.2 µM, the TGI (786-0 renal) was 40.1 µM and the TGI (NCI-H23 lung) was 36.2 µM. The TGI (NCI-H460 lung) was 62.7 µM, the TGI (DU-145 prostate) was 31.7 µM and the TGI (MDA-MB-231 breast) was 75.6 µM. It also gave a TGI (HOP-92 NSCLC) of 30.7 µM.
Molecule `Cn1cc(-c2csc(-c3cn(C)c4ccccc34)n2)c2ccccc21` has a TGI (A549 NSCLC) greater than 100 µM, a TGI (MOLT-4 leukemia) of 42 µM and a TGI (SK-MEL-28 melanoma) greater than 100 µM. For the same molecule, the TGI (SW-620 colon) was greater than 100 µM, the TGI (786-0 renal) was greater than 100 µM and the TGI (NCI-H23 lung) was greater than 100 µM. It also gave a TGI (NCI-H460 lung) greater than 100 µM, a TGI (DU-145 prostate) greater than 100 µM and a TGI (MDA-MB-231 breast) of 60.1 µM. The TGI (HOP-92 NSCLC) was 94.5 µM.
With `OC1CSc2nc3ccccc3n2C1` (stereo unspecified) the TGI (A549 NSCLC) was greater than 100 µM, the TGI (MOLT-4 leukemia) was greater than 100 µM and the TGI (SW-620 colon) was greater than 100 µM. The TGI (786-0 renal) was greater than 100 µM, the TGI (NCI-H23 lung) was greater than 100 µM and the TGI (NCI-H460 lung) was greater than 100 µM. It also gave a TGI (DU-145 prostate) greater than 100 µM, a TGI (SNB-75 CNS) of 44.8 µM and a TGI (MDA-MB-231 breast) greater than 100 µM. For the same molecule, the TGI (HOP-92 NSCLC) was greater than 100 µM.
`CNC1(C(=O)O)CC1` was tested, and the TGI (A549 NSCLC) was greater than 100 µM, the TGI (MOLT-4 leukemia) was greater than 100 µM and the TGI (SK-MEL-28 melanoma) was greater than 100 µM. For the same molecule, the TGI (SW-620 colon) was greater than 100 µM, the TGI (786-0 renal) was greater than 100 µM and the TGI (NCI-H23 lung) was greater than 100 µM. For the same molecule, the TGI (NCI-H460 lung) was greater than 100 µM, the TGI (DU-145 prostate) was greater than 100 µM and the TGI (MDA-MB-231 breast) was greater than 100 µM. For the same molecule, the TGI (HOP-92 NSCLC) was greater than 100 µM.
`CC1(C)[C@@H]2C[C@H]1c1cnc(-c3ccccn3)cc1C2CCCCC[C@@H]1c2cc(-c3ccccn3)ncc2[C@@H]2C[C@H]1C2(C)C` (stereo partly specified) showed a TGI (A549 NSCLC) greater than 36.7 µM, a TGI (MOLT-4 leukemia) greater than 100 µM and a TGI (SK-MEL-28 melanoma) greater than 100 µM. For the same molecule, the TGI (SW-620 colon) was greater than 100 µM, the TGI (786-0 renal) was 11.5 µM and the TGI (NCI-H460 lung) was 24.9 µM. For the same molecule, the TGI (DU-145 prostate) was greater than 100 µM, the TGI (SNB-75 CNS) was greater than 22.6 µM and the TGI (MDA-MB-231 breast) was 89 µM.
With `Cc1ccc(N/C(SCc2ccccc2)=C(\C(Cl)=C(Cl)Cl)[N+](=O)[O-])c(C)c1` the TGI (A549 NSCLC) was 90.6 µM, the TGI (MOLT-4 leukemia) was greater than 100 µM and the TGI (SK-MEL-28 melanoma) was 71.6 µM. For the same molecule, the TGI (SW-620 colon) was 33.3 µM, the TGI (786-0 renal) was 54.3 µM and the TGI (NCI-H23 lung) was 38.5 µM. It also gave a TGI (NCI-H460 lung) greater than 100 µM, a TGI (DU-145 prostate) greater than 100 µM and a TGI (SNB-75 CNS) of 85.9 µM. It also gave a TGI (MDA-MB-231 breast) of 34.8 µM.
`CC[C@@]1(O)C(=O)OCc2c1cc1n(c2=O)Cc2c-1nc1ccccc1c2/C=N/NC(=O)c1ccc(N)cc1` showed a TGI (A549 NSCLC) greater than 100 µM, a TGI (MOLT-4 leukemia) of 0.287 µM and a TGI (SK-MEL-28 melanoma) greater than 100 µM. It also gave a TGI (SW-620 colon) greater than 100 µM, a TGI (786-0 renal) of 5.03 µM and a TGI (NCI-H23 lung) of 1.48 µM. It also gave a TGI (NCI-H460 lung) of 15.2 µM, a TGI (DU-145 prostate) of 16.8 µM and a TGI (MDA-MB-231 breast) greater than 100 µM.
